Reference: patent US20230181632A1 (CHEMAS CO., LTD., priority 2020, published 2023)
Where two headings read alike, the source gives them in different places.

Assays:
[1] = system: Vero E6 cells; type: cell-based, African green monkey; conditions: same RNA samples as transcriptomic assay, normalized to 18s rRNA
[2] = system: SARS-CoV-2-infected Vero E6 cells; type: cell-based, African green monkey; conditions: 2,000-fold diluted, 36 or 72 hours
[3] = system: SARS-CoV-2; type: cell-based
[4] = system: Vero E6 cells; test: MTT cytotoxicity assay; type: cell-based, African green monkey; conditions: 48 hours
Experimental: Vero E6 cells, which are derived from kidney cells extracted from an African green monkey, were seeded at a density of 1×10^4 cells/well into 96-well plates and incubated overnight in DMEM (Dulbecco's modified Eagle's medium) supplemented with glucose, 10% FBS (fetal bovine serum), 1% PS (penicillin+streptomycin), 1% L-glutamine 200 mM, 1% sodium pyruvate 100 mM, and nonessential amino acids before being washed with a PBS buffer.
Cytotoxicity was examined through an MTT assay. The MTT assay is a colorimetric assay for assessing cytotoxicity or viability by taking advantage of the mitochondrial ability to convert the yellow water-soluble substrate MTT tetrazolium into purple insoluble formazan product […] by the action of oxidoreductase enzymes present in mitochondria of living cells.
The cultured Vero E6 cells were seeded into 96-well plates. A 1% (w/v) solution of tetraarsenic hexoxide (As4O6) in distilled water was 1,000- to 20,000-fold diluted (As4O6 25.27 μM-1.26 μM) in DMEM and each of the dilutions was applied to the 96-well plates in duplicate, followed by incubation for 48 hours. […] Incubation at room temperature for 15 minutes made the formazan crystals completely dissolved, followed by reading absorbance at 570 nm (A570 nm) on a microplate.

[5] = […], 3,000-fold diluted (8.42 μM), 3 days, Vero E6
[6] = […], 4,000-fold diluted (6.32 μM), 3 days, Vero E6

O1[As]2O[As]3O[As]1O[As](O2)O3 [tetraarsenic hexoxide]
expression of the genes BAG3, CRYAB, HSPH1, HMOX1 and ZFAND2A (RT-PCR) [1]: upregulated expressions
expression of the cytokine genes CSF1, PDGFA, PDGFB, CXCL1, CXCL2, CXCL3, CXCL8, CXCL10, CCL2, and CCL20 (transcriptome) [2]: remarkably downregulated
expression of the gene ZFAND2A (transcriptome) [2]: increased
expression of the genes BAGS, HSPA1B, CRYAB, HMOX1, and HSPH1 (transcriptome) [2]: upregulated
% Inhibition of CPE [3]: 100%
% Inhibition of CPE (cytopathic effect) [3]: 100%
% Inhibition of CPE [3, 5]: 87.5% (7/8well)
% Inhibition of CPE (cytopathic effect) [3, 5]: 37.5% (3/8well)
% Inhibition of CPE [3, 6]: 87.5% (7/8well)
% Inhibition of CPE (cytopathic effect) [3, 6]: 37.5% (3/8well)
inhibition against viral growth ([3]; […], across tested dilutions): 87-100%
Cytotoxicity (MTT) ([4]; 1% (w/v) solution, 2,000-fold or greater dilutions): the cells survived and did not undergo cell death
Cytotoxicity (MTT) ([4]; 1% (w/v) solution, up to 1,000-fold dilution (25.27 μM)): exhibited cytotoxicity leading to cell death
